According to PMC8159961, “Exploring protein hotspots by optimized fragment pharmacophores” (Nature Communications, 2021):

Tests used:
human 5-HT1A receptor = biological target: T1, human 5-HT1A receptor (Homo sapiens, UniProt P08908); assay: GPCR radioligand binding assay, [3H]-8-OH-DPAT displacement, HEK293 membranes; conditions: for %inh 5-HT1A average: average of exp_1 and exp_2; for %inh 5-HT1A corrected*: average, values below 0 and above 100% were set as 0 and 100; for %inh 5-HT1A exp_1: replicate exp_1; for %inh 5-HT1A exp_2: replicate exp_2; for 5-HT1A % Inhibition by plate position: 10 µM
T1 construct: expressed in transfected cells
T1 sequence (P08908 1-422): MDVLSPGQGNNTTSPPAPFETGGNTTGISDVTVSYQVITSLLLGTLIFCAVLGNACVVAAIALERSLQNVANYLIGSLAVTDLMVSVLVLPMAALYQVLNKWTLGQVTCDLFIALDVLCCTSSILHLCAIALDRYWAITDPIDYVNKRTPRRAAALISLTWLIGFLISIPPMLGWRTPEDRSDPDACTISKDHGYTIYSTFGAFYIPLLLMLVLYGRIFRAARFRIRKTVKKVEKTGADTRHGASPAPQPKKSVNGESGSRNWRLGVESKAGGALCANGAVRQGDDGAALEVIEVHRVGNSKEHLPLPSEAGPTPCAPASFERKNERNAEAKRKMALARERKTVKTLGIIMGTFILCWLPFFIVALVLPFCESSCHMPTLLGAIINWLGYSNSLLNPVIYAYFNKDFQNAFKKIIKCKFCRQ

human 5-HT6 receptor = biological target: T2, human 5-HT6 receptor (Homo sapiens, UniProt P50406); assay: GPCR radioligand binding assay, [3H]-LSD displacement, HEK293 membranes; conditions: for 5-HT6 % Inhibition by plate position: 10 µM; for %inh 5-HT6 average: average of exp_1 and exp_2; for %inh 5-HT6 corrected*: average, values below 0 and above 100% were set as 0 and 100; for %inh 5-HT6 exp_1: replicate exp_1; for %inh 5-HT6 exp_2: replicate exp_2
T2 construct: expressed in transfected cells
T2 sequence (P50406 whole entry): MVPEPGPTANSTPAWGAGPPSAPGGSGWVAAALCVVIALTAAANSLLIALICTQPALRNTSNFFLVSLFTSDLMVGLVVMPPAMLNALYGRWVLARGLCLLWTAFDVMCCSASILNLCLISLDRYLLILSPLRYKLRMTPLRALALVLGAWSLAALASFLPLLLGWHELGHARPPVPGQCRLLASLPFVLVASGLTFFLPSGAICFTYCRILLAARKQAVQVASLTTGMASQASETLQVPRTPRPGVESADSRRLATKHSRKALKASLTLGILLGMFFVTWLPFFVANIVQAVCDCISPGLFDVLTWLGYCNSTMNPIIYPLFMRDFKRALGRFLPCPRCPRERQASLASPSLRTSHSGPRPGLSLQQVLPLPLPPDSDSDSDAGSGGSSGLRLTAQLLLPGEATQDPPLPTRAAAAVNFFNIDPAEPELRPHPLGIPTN

human 5-HT7b receptor = biological target: T3, human 5-HT7b receptor (Homo sapiens, UniProt P34969); assay: GPCR radioligand binding assay, [3H]-5-CT displacement, HEK293 membranes; conditions: for 5-HT7 % Inhibition by plate position: 10 µM; for %inh 5-HT7 average: average of exp_1 and exp_2; for %inh 5-HT7 exp_1: replicate exp_1; for %inh 5-HT7 exp_2: replicate exp_2
T3 construct: expressed in transfected cells
T3 sequence (P34969 1-432): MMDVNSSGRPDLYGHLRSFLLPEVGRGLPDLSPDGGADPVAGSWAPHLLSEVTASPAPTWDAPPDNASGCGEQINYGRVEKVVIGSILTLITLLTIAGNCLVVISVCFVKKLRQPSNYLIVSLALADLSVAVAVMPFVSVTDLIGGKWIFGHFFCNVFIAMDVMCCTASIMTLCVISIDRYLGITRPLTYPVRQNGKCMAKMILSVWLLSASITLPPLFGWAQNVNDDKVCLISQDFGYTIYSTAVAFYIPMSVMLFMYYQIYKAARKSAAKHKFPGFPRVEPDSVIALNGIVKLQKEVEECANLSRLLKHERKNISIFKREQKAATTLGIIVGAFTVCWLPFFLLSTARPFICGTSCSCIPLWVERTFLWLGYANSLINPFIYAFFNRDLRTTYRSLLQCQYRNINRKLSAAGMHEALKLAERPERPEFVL

SMILES	%inh 5-HT1A average (human 5-HT1A receptor) [%]	%inh 5-HT1A corrected* (human 5-HT1A receptor) [%]	%inh 5-HT1A exp_1 (human 5-HT1A receptor) [%]	%inh 5-HT1A exp_2 (human 5-HT1A receptor) [%]	5-HT6 % Inhibition by plate position (human 5-HT6 receptor) [%]	%inh 5-HT6 average (human 5-HT6 receptor) [%]	%inh 5-HT6 corrected* (human 5-HT6 receptor) [%]	%inh 5-HT6 exp_1 (human 5-HT6 receptor) [%]	%inh 5-HT6 exp_2 (human 5-HT6 receptor) [%]	5-HT7 % Inhibition by plate position (human 5-HT7b receptor) [%]	%inh 5-HT7 average (human 5-HT7b receptor) [%]	%inh 5-HT7 exp_1 (human 5-HT7b receptor) [%]	%inh 5-HT7 exp_2 (human 5-HT7b receptor) [%]	5-HT1A % Inhibition by plate position (human 5-HT1A receptor) [%]
Cc1ccc(CCNc2ccccc2)cn1 [H11]	5	5	11	-0.501	0	-0.844	0	7	-9	0	-0.222	-13	12	–
O=C(O)c1ccc(CN2CCOCC2)cc1 [H1]	5	5	11	-0.56	44	44	44	48	41	17	–	11	23	–
Brc1ccc(-c2ccon2)cc1 [A9]	3.49	3.49	4	3	34	34	34	40	29	5.57	–	1.16	10	–
Nc1ccc(SC(F)F)cc1 [D1]	-16	–	-6.6	-25	45	45	45	52	38	8	–	5.58	10	0
O=C1CCC(=O)N(c2ccccc2)N1 [H7]	6	6	7	5.53	22	22	22	24	20	24	–	27	21	–
O=C1CCN(c2ccncc2)CC1 [G7]	0.831	0.831	-1.88	3.54	7	7	7	7.61	7	3.28	–	-1.58	8	–
C1=C[C@H]2O[C@@H]1c1ccccc12 [C11]	-11	–	-11	-11	46	46	46	42	50	0	-8	-5.66	-11	0
O=C1CSC(Nc2ccc(F)cc2)=N1 [H10]	12	12	10	15	36	36	36	37	35	0	-3.55	3.25	-10	–
